{"source": "patent US20220268782A1", "about": "“METHODS FOR PREDICTING AND TREATING CARDIAC DYSFUNCTION” (INSERM (INSTITUT NATIONAL DE LA SANTÉ EAT DE LA RECHERCHE …, priority 2019, published 2022)", "system": "C2C12 myoblasts", "assay": "PA catabolism and Nrf2-antioxidant pathway in C2C12 cells (Pah, tyrosine, 2-SC)", "assay_type": "cell-based", "conditions": "data not shown", "description": "Cells were washed briefly with ice-cold 1×PBS, scraped in 400 μL T-PER lysis buffer (ThermoFisher) supplemented with 0.1 mM phenylmethylsulphonyl fluoride (PMSF) and protease/phosphatase inhibitor cocktail tablet (ThermoFisher). Pulverised tissue samples (20-30 mg) were lysed in the same buffer accelerated by sonication and passing through a 21 G needle. To pellet any debris, lysates were centrifuged at 10,000 g for 10 minutes at 4° C., with the supernatant transferred to fresh tubes. Protein concentrations were determined with Bradford assay (Biorad) and lysates were diluted to equal concentration with lysis buffer. […]\nC2C12 (ATCC® CRL-1772™) myoblasts maintained in DMEM supplemented with L-glutamine (2 mM), penicillin/streptomycin (1%) and 5% fetal bovine serum (FBS) were seeded either at a density of 5×10^4 cells (<50%) per well in 24-well plates or 10^4 cells in 4-well chamber slides. […] Cells were analysed for oxidative stress with MitoSOX™ (mitochondrial superoxide; 5 μM, ThermoFisher Scientific), CellROX™ (cytosolic superoxide; 5 μM, ThermoFisher Scientific), gene or protein expression, or various metabolites (see below).\nLevels of reduced glutathione (GSH; ThermoFisher), phenylalanine (BioVision) and tyrosine (BioVision) were determined from cells or plasma, with respective agents/kits following the manufacturer's recommendations. […]", "data": [{"smiles": "CC(O)C(O)C1CNc2nc(N)[nH]c(=O)c2N1", "note": "(centres unmarked) [BH4, 2-amino-6-(1,2-dihydroxypropyl)-5,6,7,8-tetrahydro-3H-pteridin-4-one]", "values": [{"measurement": "succination-sensitive Nrf2-antioxidant pathway", "setting": "BH4-dependent succination", "result": "activation"}, {"measurement": "PA catabolism: cellular levels of Pah, tyrosine and 2-succinylcysteine (2-SC)", "result": "increased"}]}]}
